# Measured values from patent US20160122330A1, “PIPERIDINYL BENZOIMIDAZOLE DERIVATIVES AS MPGE-1 INHIBITORS” (NOVASAID AB, priority 2013, published 2016).
# What was measured:
# [1] = system: A549 lung carcinoma cells; test: A549 cell-assay, cellular PGE2 synthesis; format: cell-based; conditions: Homo sapiens, PGE2 content by EIA, TNFalfa/IL-1beta stimulated cells, 10 μM arachidonic acid, arithmetic mean values
# Description: Prostaglandin detection kits were purchased from Cayman Chemicals and used according to the instruction of the manufacturer.
# A549 lung carcinoma cells, seeded at a density of 10,000 cells/well, were grown in 96 well tissue culture plates. TNFalfa (5 ng/mL) and IL-1beta (5 ng/mL) were added and the cells were incubated for 16 hours. Cells were washed in PBS and test compounds at the appropriate concentration in HBSS/0.1% BSA were added. After 30 minutes of incubation with test compounds, 10 μM arachidonic acid was added and cells were further incubated for 30 minutes. Supernatant was collected and analyzed for PGE2 content by EIA according to manufacturer's instructions.
# [2] = molecular target: T1, recombinant membrane-bound human mPGEs-1 (Homo sapiens, UniProt O14684); test: Thiobarbituric acid assay (TBA-MDA assay), inhibition of human mPGEs-1; format: biochemical; conditions: arithmetic mean values
# T1 sequence (O14684 1-152): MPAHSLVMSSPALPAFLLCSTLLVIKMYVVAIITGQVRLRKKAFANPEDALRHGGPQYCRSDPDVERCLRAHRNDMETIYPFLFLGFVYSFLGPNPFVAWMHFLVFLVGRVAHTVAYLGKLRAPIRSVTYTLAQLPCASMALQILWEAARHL
# From the text: Malondialdehyde is a product of lipid peroxidation and reacts with thiobarbituric acid forming a red product that absorbs light at 535 nm (W. G. Niehaus, Jr and B. Samuelsson, Eur. J. Biochem 6, 126 (1968)) and is also fluorescent. The extinction coefficient of the TBA-MDA conjugate is 1.56×10^5 M^−1 cm^−1 (E. D. Wills. Biochem. J. 113, 315 (1969). The method used for detection of inhibition of mPGEs-1 is based on the detection of the amount of remaining PGH2. This method was described more than 20 years ago by Basevich et al (Bioorg. Khim. 1983, 9(5), 658-665).
# The assay used was a modified variant and used citric acid instead of the TCA-TBA-HCl reagent described in the original assay. In this assay, recombinant membrane-bound human mPGEs-1 was incubated with PGH2. The reaction was stopped by adding citric acid to a final pH 3 and a large excess of iron(II) chloride (20 mM) to convert any remaining PGH2 into MDA and 12-HHT. TBA reagent was finally added (0.67%) and the samples were heated at 80° C. for 30 min. The fluorescence of the conjugate was measured at 485/545 nm.
# The product of mPGEs-1 (PGE2) was not measured directly in this assay, but rather the remaining substrate (PGH2) indirectly by adding FeCl2 that converts PGH2 into MDA and 12-HHT. As a positive control, a known mPGEs-1 inhibitor, MK-886, was used and the inhibition afforded by the new inhibitors was compared with that obtained from MK-886.
SMILES,IC50 [1],IC50 [2]
"Cc1cc2c(cc1Cl)nc(N1CCC(C(=O)N[C@@H]3CCOC3)CC1)n2-c1cccc(C(F)(F)F)n1 [Example 1, (R)-1-(5-chloro-6-methyl-1-(6-(trifluoromethyl)pyridin-2-yl)-111-benzo[d]imidazol-2-yl)-N-(tetrahydrofuran-3-yl)piperidine-4-carboxamide]",28 nM,18 nM
"Cc1cc2nc(N3CCC(C(=O)N[C@@H]4CCOC4)CC3)n(-c3cccc(C(F)(F)F)n3)c2cc1Cl [Example 2, (R)-1-(6-chloro-5-methyl-1-(6-(trifluoromethyl)pyridin-2-yl)-1H-benzoimidazol-2-yl)-N-(tetrahydrofuran-3-yl)piperidine-4-carboxamide]",52 nM,24 nM
"Cc1cc2c(cc1Cl)nc(N1CCC(C(=O)N[C@@H]3CCOC3)CC1)n2-c1ccc(C(F)(F)F)cn1 [Example 3, (R)-1-(5-chloro-6-methyl-1-(5-(trifluoromethyl)pyridin-2-yl)-1H-benzo[d]imidazol-2-yl)-N-(tetrahydrofuran-3-yl)-piperidine-4-carboxamide]",85 nM,58 nM
"Cc1cc2nc(N3CCC(C(=O)N[C@@H]4CCOC4)CC3)n(-c3ccc(C(F)(F)F)cn3)c2cc1Cl [Example 4, (R)-1-(6-chloro-5-methyl-1-(5-(trifluoromethyl)pyridin-2-yl)-1H-benzo[d]imidazol-2-yl)-N-(tetrahydrofuran-3-yl)-piperidine-4-carboxamide]",122 nM,46 nM
